Here are results for two molecules from paper PMC10771296, “Plectasin: from evolution to truncation, expression, and better druggability” (Frontiers in Microbiology, 2023).

The test system of data set [1] is mouse erythrocytes. Particulars: 256 μg/mL; ref Zhang et al., 2011; Yang et al., 2019; cited from earlier work. From the text:
The length, positive charge number, and amphiphilicity of the derived peptide Ple-AB were altered, reducing the peptide chain length from 40 to 36 amino acids, reducing the molecular weight from 4407.99 to 4006.66 Da, increasing the charge number from +1 to +3, and increasing the hydrophobicity from −0.695 to −0.469 (Table 1).

Data set [2] concerns S. aureus ATCC43300. Particulars: ref Lei et al., 2018; cited from earlier work. From the text:
Clinical applications require drugs that exhibi ...

The test system of data set [3] is P. aeruginsoa CICC21630. Particulars: ref Yang et al., 2019; cited from earlier work. From the text:
(§1) Table 3 The MIC values of Ple-AB. | column: MIC (μg/mL) / Plectasin

Data set [4] deals with S. aureus CVCC546. Particulars: ref Yang et al., 2019; cited from earlier work.
Text: as §1

The test system of data set [5] is E. coli O157. Particulars: ref Yang et al., 2019; cited from earlier work.
Text: as §1

Data set [6] has as its system S. aureus E48. Particulars: ref Yang et al., 2019; cited from earlier work.
Text: as §1

The test system of data set [7] is S. aureus ATCC43300. Particulars: ref Yang et al., 2019; cited from earlier work.
Text: as §1

Data set [8] has as its system S. aureus ATCC43300. The data set can be described thus: MIC/MBC, micro broth dilution. The class given is cell-based, Staphylococcus aureus. Particulars: Staphylococcus aureus, ATCC43300; micro broth dilution, 1 × 10^5 CFU/mL, repeated thrice; read-out: MIC. The protocol: The minimum inhibitory concentration (MIC) of the peptides was assayed using the micro broth dilution method, which is an important indicator of the antibacterial activity of the AMPs ([Liu et al., 2021]). […] The MIC was defined as the lowest concentration of ones at which no visible bacterial growth was observed. All the assays were repeated thrice.
For orientation: Broth dilution looks for growth in wells or tubes with falling amounts of substance.

Data set [9] relates to S. aureus ATCC43300. The data set can be described thus: Time-kill curve (bacterial kinetics in vitro). The class given is cell-based, Staphylococcus aureus. Particulars: 2× MIC, 1 × 10^5 CFU/mL, 37°C, 250 rpm, colony counting. The protocol:
The bactericidal efficiency of Ple-AB was evaluated by plotting a time-kill curve ([Zheng et al., 2021]). Single colonies of the S. aureus ATCC43300 were picked for overnight activation, and 1% were transferred and incubated at 37°C until the logarithmic growth phase. […] Samples of 100 uL of bacteria were taken at 0, 0.5, 1, 2, 4, 6, 8, 10, 12, and 24 h, diluted, and coated to count the number of single colonies and plot the time-killing curve.

Each structure is given as a SMILES string. In brackets after ≈: the same amount, converted by molar mass. Like-named read-outs stand apart in the source and are kept apart here. Marks after values point to notes of the source that are not given here.

In the case of `CC[C@H](C)[C@@H]1NC(=O)[C@H](CO)NC(=O)[C@H](CCCCN)NC(=O)[C@@H]2CSSC[C@@H](C(=O)N[C@@H](Cc3ccc(O)cc3)C(=O)O)NC(=O)[C@H](CCCCN)NC(=O)[C@@H]3CSSC[C@H](NC(=O)[C@H](CCC(N)=O)NC(=O)[C@H](CCSC)NC(=O)[C@H](CC(=O)O)NC(=O)[C@H](CC(=O)O)NC(=O)[C@H](CCC(=O)O)NC(=O)[C@H](CC(=O)O)NC(=O)[C@H](Cc4c[nH]c5ccccc45)NC(=O)[C@@H]4CCCN4C(=O)CNC(=O)[C@H](CC(N)=O)NC(=O)[C@@H](NC(=O)CNC(=O)[C@H](Cc4ccccc4)NC(=O)CN)CSSC[C@H](NC(=O)[C@H](Cc4ccc(O)cc4)NC(=O)CNC(=O)CNC(=O)[C@H](CCCCN)NC(=O)[C@H](Cc4ccc(O)cc4)NC(=O)CNC(=O)[C@H](CCCCN)NC1=O)C(=O)N[C@@H](C)C(=O)N[C@@H](CCCCN)C(=O)NCC(=O)NCC(=O)N[C@@H](Cc1ccccc1)C(=O)N[C@@H](C(C)C)C(=O)N3)C(=O)N[C@@H](Cc1c[nH]cn1)C(=O)N[C@@H](CC(N)=O)C(=O)N[C@@H](Cc1c[nH]cn1)C(=O)N2` [Plectasin], the Hemolytic activity in data set [1] is recorded as 68%. The “Time of co-incubation with simulated intestinal fluid after which activity is lost” value in data set [2] was 15 to 30 min. Besides, the MIC (as a rule, the lowest concentration that inhibits growth of the organism) was >128 ^a μg/mL in [3]; 16^a μg/mL in data set [4]; >128 ^a μg/mL in data set [5]; 4^a μg/mL in [6]; 4^a μg/mL in [7].

Regarding `CN[C@H](CC(C)C)C(=O)N[C@H]1C(=O)N[C@@H](CC(N)=O)C(=O)N[C@H]2C(=O)N[C@H]3C(=O)N[C@H](C(=O)N[C@H](C(=O)O)c4cc(O)cc(O)c4-c4cc3ccc4O)[C@H](O)c3ccc(c(Cl)c3)Oc3cc2cc(c3O[C@@H]2O[C@H](CO)[C@@H](O)[C@H](O)[C@H]2O[C@H]2C[C@](C)(N)[C@H](O)[C@H](C)O2)Oc2ccc(cc2Cl)[C@H]1O` [vancomycin, reference compound], in data set [8], the minimal inhibitory concentration (MIC) was 1 µg/mL (≈ 0.69 µM). Further, in data set [9], the “Time to kill all the strains” value was found to be 6 h.
